Measurements as given in PMC9202514 (FASEB journal : official publication of the Federation of …, 2022).

Experiments:
GmITPK2 = target: T1, GmITPK2 (Glycine max, UniProt A7X665); assay: Ins; assay type: biochemical; settings: 1 mM ADP, pH 7.2, 25 °C
T1 sequence (A7X665 1-315): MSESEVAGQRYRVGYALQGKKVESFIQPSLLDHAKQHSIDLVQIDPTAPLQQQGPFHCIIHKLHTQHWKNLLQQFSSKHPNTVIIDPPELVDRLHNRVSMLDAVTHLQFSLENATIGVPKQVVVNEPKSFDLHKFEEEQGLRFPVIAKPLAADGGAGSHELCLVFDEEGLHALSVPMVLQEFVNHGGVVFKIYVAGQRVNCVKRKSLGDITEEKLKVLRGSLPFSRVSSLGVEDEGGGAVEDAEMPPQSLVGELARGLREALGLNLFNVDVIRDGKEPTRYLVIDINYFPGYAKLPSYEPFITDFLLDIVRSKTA

GmITPK1 = target: T2, GmITPK1 (Glycine max, UniProt A7X657); assay: InsP6 kinase activity assay; assay type: biochemical; settings: 1 mM ATP, pH 7.2, 25 °C
T2 sequence (A7X657 1-339): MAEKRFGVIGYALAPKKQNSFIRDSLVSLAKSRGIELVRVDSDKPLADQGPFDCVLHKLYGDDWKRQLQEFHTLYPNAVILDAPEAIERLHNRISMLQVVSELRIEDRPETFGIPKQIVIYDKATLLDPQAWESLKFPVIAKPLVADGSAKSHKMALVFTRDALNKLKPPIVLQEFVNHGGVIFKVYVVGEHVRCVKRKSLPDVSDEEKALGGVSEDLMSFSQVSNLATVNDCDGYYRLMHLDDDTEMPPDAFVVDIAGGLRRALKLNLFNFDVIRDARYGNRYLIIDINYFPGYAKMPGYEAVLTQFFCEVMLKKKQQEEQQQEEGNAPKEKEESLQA

SMILES | Ins(1,3,4,5,6)P5 phosphatase activity assay (GmITPK2) | InsP6 kinase activity assay (GmITPK1)
O=P(O)(O)O[C@@H]1[C@@H](OP(=O)(O)O)[C@H](OP(=O)(O)O)[C@H](O)[C@H](OP(=O)(O)O)[C@H]1OP(=O)(O)O [Ins(1,3,4,5,6)P5] | GmITPK2 exhibited the higher activity | 
O=P(O)(O)O[C@H]1[C@H](OP(=O)(O)O)[C@@H](OP(=O)(O)O)[C@H](OP(=O)(O)O)[C@@H](OP(=O)(O)O)[C@H]1OP(=O)(O)O [InsP6] |  | recombinant His6MBP-GmITPK1 is an active InsP6 kinase
